In brackets after ≈: the same amount, converted by molar mass. Where a SMILES comes first, the peptide text is derived from it. [ ]: non-standard residue; d: D form. The star is where a group is joined. Nphe = O=C(O)CNCc1ccccc1; OBn = c1ccc(CO*)cc1
Experiments:
[1] = erythrocyte
Escherichia coli = assay: Antimicrobial activity against Escherichia coli; format: functional
Staphylococcus aureus = assay: Antimicrobial activity against Staphylococcus aureus; format: functional

Row | SMILES | MHC [1] | MIC (Escherichia coli) | MIC (Staphylococcus aureus)
1 | CC[C@@H](C)[C@@H](NC(=O)[C@@H](C)NC(=O)[C@@H](CCCCN)NC(=O)[C@@H](CC(C)C)NC(=O)[C@@H](C)NC(=O)[C@H](NC(=O)[C@@H](Cc1c[nH]cn1)NC(=O)[C@@H](CC(C)C)NC(=O)[C@H](NC(=O)[C@H](NC(=O)[C@@H](CCCCN)NC(=O)[C@@H](CCCCN)NC(=O)[C@@H](C)NC(=O)[C@@H](CO)NC(=O)[C@@H](CCCCN)NC(=O)[C@@H](Cc1ccccc1)NC(=O)[C@H](NC(=O)[C@@H](CCCCN)NC(=O)[C@@H](CC(C)C)NC(=O)[C@@H](Cc1ccccc1)NC(=O)[C@@H](CO)NC(=O)[C@@H](CCCCN)NC(=O)[C@@H](Cc1c[nH]c2ccccc12)NC(=O)[C@@H](CCCCN)NC(C)=O)[C@H](C)O)[C@H](C)O)C(C)C)[C@H](C)O)C(=O)N[C@H](CO)C(=O)N[C@H](CO)C(N)=O | > 88.6 µM | – | –
2 | CC[C@H](C)[C@H](NC(=O)[C@H](CCCCN)NC(=O)[C@@H](NC(=O)[C@H](CCC(N)=O)NC(=O)[C@@H](N)CCCNC(=N)N)[C@@H](C)CC)C(=O)N[C@@H](Cc1c[nH]c2ccccc12)C(=O)N[C@@H](Cc1ccccc1)C(=O)N[C@@H](CCC(N)=O)C(=O)N[C@@H](CC(N)=O)C(=O)N[C@@H](CCCNC(=N)N)C(=O)N[C@@H](CCCNC(=N)N)C(=O)N[C@@H](CCSC)C(=O)N[C@@H](CCCCN)C(=O)N[C@@H](Cc1c[nH]c2ccccc12)C(=O)N[C@@H](CCCCN)C(=O)N[C@@H](CCCCN)C(=O)NCCCC[C@H](NC(=O)[C@H](CCCCN)NC(=O)[C@H](CCCCN)NC(=O)[C@H](Cc1c[nH]c2ccccc12)NC(=O)[C@H](CCCCN)NC(=O)[C@H](CCSC)NC(=O)[C@H](CCCNC(=N)N)NC(=O)[C@H](CCCNC(=N)N)NC(=O)[C@H](CC(N)=O)NC(=O)[C@H](CCC(N)=O)NC(=O)[C@H](Cc1ccccc1)NC(=O)[C@H](Cc1c[nH]c2ccccc12)NC(=O)[C@@H](NC(=O)[C@H](CCCCN)NC(=O)[C@@H](NC(=O)[C@H](CCC(N)=O)NC(=O)[C@@H](N)CCCNC(=N)N)[C@@H](C)CC)[C@@H](C)CC)C(N)=O | 25 µM | 2 µM (≈ 9.21 µg/mL) | 1 µM (≈ 4.6 µg/mL)
3 | CC[C@H](C)[C@H](NC(=O)[C@H](C)NC(=O)[C@H](CCCCN)NC(=O)[C@H](CC(C)C)NC(=O)[C@H](C)NC(=O)[C@H](CCCCN)NC(=O)[C@H](Cc1cnc[nH]1)NC(=O)[C@H](CC(C)C)NC(=O)[C@@H](NC(=O)[C@H](CCCCN)NC(=O)[C@H](CCCCN)NC(=O)[C@H](CCCCN)NC(=O)[C@H](C)NC(=O)[C@H](CO)NC(=O)[C@H](CCCCN)NC(=O)[C@H](Cc1ccccc1)NC(=O)[C@@H](NC(=O)[C@H](CCCCN)NC(=O)[C@H](CC(C)C)NC(=O)[C@H](Cc1ccccc1)NC(=O)[C@H](CO)NC(=O)[C@H](CCCCN)NC(=O)[C@H](Cc1c[nH]c2ccccc12)NC(=O)[C@H](CCCCN)NC(C)=O)[C@@H](C)O)C(C)C)C(=O)N[C@@H](CO)C(=O)N[C@@H](CO)C(N)=O (Ac-KWKSFLKTFKSAKKKVLHKALKAISS-NH2) | < 2.8 µM | 2.8 µM (≈ 8.53 µg/mL) | –
4 | CC[C@H](C)[C@H](NC(=O)[C@H](C)NC(=O)[C@H](CCCCN)NC(=O)[C@H](CC(C)C)NC(=O)[C@H](C)NC(=O)[C@@H](NC(=O)[C@H](Cc1c[nH]cn1)NC(=O)[C@H](CC(C)C)NC(=O)[C@@H](NC(=O)[C@@H](NC(=O)[C@H](CCCCN)NC(=O)[C@@H](NC(=O)[C@H](C)NC(=O)[C@H](CO)NC(=O)[C@H](CCCCN)NC(=O)[C@H](Cc1ccccc1)NC(=O)[C@@H](NC(=O)[C@H](CCCCN)NC(=O)[C@H](CC(C)C)NC(=O)[C@H](Cc1ccccc1)NC(=O)[C@H](CO)NC(=O)[C@H](CCCCN)NC(=O)[C@H](Cc1c[nH]c2ccccc12)NC(=O)[C@H](CCCCN)NC(C)=O)[C@@H](C)O)C(C)C)[C@@H](C)O)C(C)C)[C@@H](C)O)C(=O)N[C@@H](CO)C(=O)N[C@@H](CO)C(N)=O (Ac-KWKSFLKTFKSAVKTVLHTALKAISS-NH2) | 5.2 µM | – | –
5 | CC[C@H](C)[C@H](NC(=O)[C@H](C)NC(=O)[C@H](CCCCN)NC(=O)[C@H](CC(C)C)NC(=O)[C@H](C)NC(=O)[C@@H](NC(=O)[C@H](Cc1cnc[nH]1)NC(=O)[C@H](CC(C)C)NC(=O)[C@@H](NC(=O)[C@@H](NC(=O)[C@H](CCCCN)NC(=O)[C@@H](NC(=O)[C@H](C)NC(=O)[C@H](CO)NC(=O)[C@H](CCCCN)NC(=O)[C@H](Cc1ccccc1)NC(=O)[C@@H](NC(=O)[C@H](CCCCN)NC(=O)[C@H](CC(C)C)NC(=O)[C@H](Cc1ccccc1)NC(=O)[C@H](CO)NC(=O)[C@H](CCCCN)NC(=O)[C@H](Cc1c[nH]c2ccccc12)NC(=O)[C@H](CCCCN)NC(C)=O)[C@@H](C)O)C(C)C)[C@@H](C)O)C(C)C)[C@@H](C)O)C(=O)N[C@@H](CO)C(=O)N[C@@H](CO)C(N)=O (Ac-KWKSFLKTFKSAVKTVLHTALKAISS-NH2) | – | 2.1 µM (≈ 6.22 µg/mL) | –
6 | CC[C@H](C)[C@H](NC(=O)[C@H](CCCCN)NC(=O)[C@H](CC(C)C)NC(=O)[C@H](C)NC(=O)[C@@H](NC(=O)[C@H](Cc1cnc[nH]1)NC(=O)[C@H](CC(C)C)NC(=O)[C@@H](NC(=O)[C@@H](NC(=O)[C@H](CCCCN)NC(=O)[C@@H](NC(=O)[C@H](C)NC(=O)[C@H](CO)NC(=O)[C@H](CCCCN)NC(=O)[C@H](Cc1ccccc1)NC(=O)[C@@H](NC(=O)[C@H](CCCCN)NC(=O)[C@H](CC(C)C)NC(=O)[C@H](Cc1ccccc1)NC(=O)[C@H](CO)NC(=O)[C@H](CCCCN)NC(=O)[C@H](Cc1c[nH]c2ccccc12)NC(=O)[C@H](CCCCN)NC(C)=O)[C@@H](C)O)C(C)C)[C@@H](C)O)C(C)C)[C@@H](C)O)C(=O)N[C@@H](CO)C(=O)N[C@@H](CO)C(N)=O (Ac-KWKSFLKTFKSAVKTVLHTALKISS-NH2) | > 88.6 µM | 0.89 µM (≈ 2.57 µg/mL) | –
7 | CC[C@H](C)[C@H](NC(=O)[C@H](C)NC(=O)[C@H](CCCCN)NC(=O)[C@H](CC(C)C)NC(=O)[C@H](C)NC(=O)[C@@H](NC(=O)[C@H](Cc1c[nH]cn1)NC(=O)[C@H](CC(C)C)NC(=O)[C@@H](NC(=O)[C@@H](NC(=O)[C@H](CCCCN)NC(=O)[C@H](NC(=O)[C@H](C)NC(=O)[C@H](CO)NC(=O)[C@H](CCCCN)NC(=O)[C@H](Cc1ccccc1)NC(=O)[C@@H](NC(=O)[C@H](CCCCN)NC(=O)[C@H](CC(C)C)NC(=O)[C@H](Cc1ccccc1)NC(=O)[C@H](CO)NC(=O)[C@H](CCCCN)NC(=O)[C@H](Cc1c[nH]c2ccccc12)NC(=O)[C@H](CCCCN)NC(C)=O)[C@@H](C)O)C(C)C)[C@@H](C)O)C(C)C)[C@@H](C)O)C(=O)N[C@@H](CO)C(=O)N[C@@H](CO)C(N)=O (Ac-KWKSFLKTFKSA[dV]KTVLHTALKAISS-NH2) | 22.2 µM | – | –
8 | CC[C@H](C)[C@H](NC(=O)[C@H](C)NC(=O)[C@H](CCCCN)NC(=O)[C@H](CC(C)C)NC(=O)[C@H](C)NC(=O)[C@@H](NC(=O)[C@H](Cc1cnc[nH]1)NC(=O)[C@H](CC(C)C)NC(=O)[C@@H](NC(=O)[C@@H](NC(=O)[C@H](CCCCN)NC(=O)[C@H](NC(=O)[C@H](C)NC(=O)[C@H](CO)NC(=O)[C@H](CCCCN)NC(=O)[C@H](Cc1ccccc1)NC(=O)[C@@H](NC(=O)[C@H](CCCCN)NC(=O)[C@H](CC(C)C)NC(=O)[C@H](Cc1ccccc1)NC(=O)[C@H](CO)NC(=O)[C@H](CCCCN)NC(=O)[C@H](Cc1c[nH]c2ccccc12)NC(=O)[C@H](CCCCN)NC(C)=O)[C@@H](C)O)C(C)C)[C@@H](C)O)C(C)C)[C@@H](C)O)C(=O)N[C@@H](CO)C(=O)N[C@@H](CO)C(N)=O (Ac-KWKSFLKTFKSA[dV]KTVLHTALKAISS-NH2) | – | 1.1 µM (≈ 3.26 µg/mL) | –
9 | N=C(N)NCCC[C@H](NC(=O)[C@@H](N)Cc1c[nH]c2ccccc12)C(=O)N[C@@H](Cc1c[nH]c2ccccc12)C(N)=O (H-Trp-Arg-Trp-NH2) | > 500 µg/mL | – | –
10 | NC(=O)[C@H](Cc1c[nH]c2ccccc12)NC(=O)[C@H](CCCN=C(N)N)NC(=O)[C@@H](N)Cc1c[nH]c2ccccc12 (H-Trp-Arg-Trp-NH2) | – | > 436 µM | 218 µM (≈ 119 µg/mL)
11 | N=C(N)NCCC[C@H](NC(=O)[C@@H](N)Cc1c[nH]c2ccccc12)C(=O)N[C@@H](Cc1c[nH]c2ccccc12)C(=O)OCc1ccccc1 (H-Trp-Arg-Trp-OBn) | > 500 µg/mL | – | –
12 | NC(N)=NCCC[C@H](NC(=O)[C@@H](N)Cc1c[nH]c2ccccc12)C(=O)N[C@@H](Cc1c[nH]c2ccccc12)C(=O)OCc1ccccc1 (H-Trp-Arg-Trp-OBn) | – | 140 µM (≈ 89.1 µg/mL) | 9 µM (≈ 5.73 µg/mL)
13 | CC[C@H](C)[C@H](NC(=O)CN)C(=O)NCC(=O)N[C@@H](C)C(=O)N[C@H](C(=O)N(CC(=O)N[C@@H](CCCCN)C(=O)N[C@H](C(=O)N[C@@H](CC(C)C)C(=O)N[C@H](C(=O)N[C@H](C(=O)NCC(=O)N(CC(=O)N1CCC[C@H]1C(=O)N[C@@H](C)C(=O)N[C@@H](CC(C)C)C(=O)N[C@H](C(=O)N[C@@H](CO)C(=O)N[C@@H](Cc1c[nH]c2ccccc12)C(=O)N(CC(=O)N[C@@H](CCCCN)C(=O)N[C@@H](CCCNC(=N)N)C(=O)N[C@@H](CCCCN)C(=O)N[C@@H](CCCNC(=N)N)C(=O)N[C@@H](CCC(N)=O)C(=O)N[C@@H](CCC(N)=O)C(=O)O)Cc1ccccc1)[C@@H](C)CC)Cc1ccccc1)[C@@H](C)O)[C@@H](C)O)C(C)C)Cc1ccccc1)C(C)C [MELITTIN PEPTOID F] (H-GIGAV[Nphe]KVLTTG[Nphe]PALISW[Nphe]KRKRQQ-OH) | > 100 µM | 4 µM (≈ 11.8 µg/mL) | 2 µM (≈ 5.9 µg/mL)
14 | CC[C@H](C)[C@H](NC(=O)CN)C(=O)NCC(=O)N[C@@H](C)C(=O)N[C@H](C(=O)N[C@@H](CC(C)C)C(=O)N[C@@H](CCCCN)C(=O)N[C@H](C(=O)N[C@@H](CC(C)C)C(=O)N[C@H](C(=O)N[C@H](C(=O)NCC(=O)N[C@@H](CC(C)C)C(=O)N1CCC[C@H]1C(=O)N[C@@H](C)C(=O)N[C@@H](CC(C)C)C(=O)N[C@H](C(=O)N[C@@H](CO)C(=O)N[C@@H](Cc1c[nH]c2ccccc12)C(=O)N[C@H](C(=O)N[C@@H](CCCCN)C(=O)N[C@@H](CCCNC(=N)N)C(=O)N[C@@H](CCCCN)C(=O)N[C@@H](CCCNC(=N)N)C(=O)N[C@@H](CCC(N)=O)C(=O)N[C@@H](CCC(N)=O)C(N)=O)[C@@H](C)CC)[C@@H](C)CC)[C@@H](C)O)[C@@H](C)O)C(C)C)C(C)C [MELITTIN] | 0.78 µM | – | –
15 | CC[C@H](C)[C@H](NC(=O)[C@H](CCCCN)NC(=O)[C@@H](NC(=O)[C@H](CCC(N)=O)NC(=O)[C@@H](N)CCCNC(=N)N)[C@@H](C)CC)C(=O)N[C@@H](Cc1c[nH]c2ccccc12)C(=O)N[C@@H](Cc1ccccc1)C(=O)N[C@@H](CCC(N)=O)C(=O)N[C@@H](CC(N)=O)C(=O)N[C@@H](CCCNC(=N)N)C(=O)N[C@@H](CCCNC(=N)N)C(=O)N[C@@H](CCSC)C(=O)N[C@@H](CCCCN)C(=O)N[C@@H](Cc1c[nH]c2ccccc12)C(=O)N[C@@H](CCCCN)C(=O)N[C@@H](CCCCN)C(N)=O [PENETRATIN] | > 200 µM | 2 µM (≈ 4.49 µg/mL) | 1 µM (≈ 2.25 µg/mL)
